Measured values taken from patent publication US20240261375A1, “PHARMACEUTICAL COMPOSITION FOR TREATING OR PREVENTING DISORDER ASSOCIATED WITH ADMINISTRATION OF ANTICANCER AGENT” (LTT BIO-PHARMA CO., LTD., priority 2021, published 2024).

Columns and labels:
[1] = system: intraepidermal nerve fiber of OXA-treated rats; experiment: Assessment of density of intraepidermal nerve fiber (PGP9.5 staining); type: in vivo, rat; settings: OXA+PC-SOD 1 mg/kg; FIG. 3
Experimental: Rat epidermis tissue was fixed with a 4% paraformaldehyde fixative and washed with PBS 24 hours later, and a frozen block was prepared. A frozen slice having a thickness of 50 μm was prepared from the prepared block by using Cryostat (CM3050S, Leica Biosystems), and a 0.2% Triton-X solution was added as permeabilization treatment to allow the mixture to react for 10 minutes. Nerve fiber was allowed to react with Anti-PGP9.5 antibody (Ultraclone Ltd.) at 4° C. overnight, then it was washed with PBST, and allowed to react with a secondary fluorescence antibody (Goat anti-Rabbit IgG Alexa Fluor 488, Invitrogen). After the reaction was done at room temperature for one hour, the nerve fiber was washed, rinsed, followed by dropwise addition of […] with DAPI H-1200 (Vector Laboratories), and enclosed, and two to three images of each sample captured at 200-fold magnification were saved (Scale bar=100 μm) by using a fluorescence microscope BZ-X800 (Keyence Corporation).

[2] = system: OXA-induced allodynia model rats; experiment: Cold stimulation (acetone) test in OXA-induced allodynia model rats; type: in vivo, rat; settings: OXA 10 mg/kg i.p. Days 1 and 2; PC-SOD 1 mg/kg caudal vein, prophylactic; FIG. 2
Experimental: Five-week-old male SD rats (from 200 to 400 g) were used as laboratory animals, and OXA was administered into the peritoneal cavity of rats at a dose of 10 mg/kg. A total of two doses were given (Days 1 and 2). A solvent for OXA, i.e., a 5% glucose solution, was similarly administered to a control group.
Laboratory animals were divided into three groups (n=8 per group): a control group, an OXA administration group, and a group receiving administration of OXA and PC-SOD 1 mg/kg (OXA+PC-SOD administration group). For the OXA+PC-SOD administration group, PC-SOD was administered into the caudal vein from 15 minutes after administration of OXA as prophylactic administration. A total of two doses were given (Days 1 and 2). A solvent for PC-SOD was similarly administered to the control group and the OXA administration group.
Rats were placed in a container with a wire net bottom and acclimatized for 30 minutes, and then 0.1 mL of acetone was sprayed onto their hindlimb by using a spray for an organic solvent (No. 3530, Furupla Co., Ltd.) to give a cold stimulus by utilizing a cooling action at the time of vaporization of acetone. […] Specifically, the responses were assessed by scoring with four levels (Scores 0, 1, 2, and 3). Score 0 was to be given if animals were unresponsive as in a resting state. […]

[3] = system: liver of OXA-treated rats; experiment: Pathological assessment of liver disorder caused by oxaliplatin (HE staining); type: in vivo, rat; settings: PC-SOD 1 mg/kg, mangafodipir dose not given, FIG. 5
From the text: A liver tissue was collected and fixed with 10% neutral buffered formalin to prepare a paraffin block by using Histos 5 (Milestone) and an embedding center (EG1160, Leica). The sample block was thinly sliced at a thickness of 3 μm by using a microtome (MR2245, Leica) to prepare a slide. The prepared slide was stained by HE staining, enclosed, and observed at 200 and 400-fold magnifications by using the optical microscope function of All-in-One Fluorescence Microscope (BZ-X800, Keyence Corporation). Observation and assessment were performed by observing the whole section. Two to four representative tissue images were randomly taken up, and alteration in the tissue structure, such as inflammation and necrosis, was observed and assessed (Scale bar=200 μm).

[4] = system: PC12 cells differentiated by NGF; experiment: Neurite retraction in NGF-differentiated PC12 cells caused by anticancer agents; type: cell-based, rat; settings: 24 hours; for neurite retraction caused by oxaliplatin: oxaliplatin 20 μM
Experimental: Rat adrenal gland pheochromocytoma-derived PC12 cells are known to be differentiated into neuron-like cells having neurites by nerve growth factor (NGF) and are widely used as a nerve cell model. To assess the neurite-protective action of PC-SOD, the effect of PC-SOD in neurite disorder caused by various anticancer agents was analyzed by using PC12 cells differentiated by NGF.
PC12 cells were seeded on a 24-well plate coated with collagen at 5 000 cells/well. […] The images of cells were captured by using a microscope (BZ-X800, Keyence Corporation), and the neurite lengths were measured by using an image analysis software ImageJ (NIH).
(§1) PC12 cells were seeded on a 24-well plate coated with collagen at 5 000 cells/well. […] After neurite elongation, cells were cultured by using differentiation media each containing carboplatin (with a final concentration of 50 μM) alone or carboplatin and PC-SOD (with final concentrations of 10, 20, 50, and 100 μg/mL) for 24 hours. The images of cells were captured by using a microscope (BZ-X800, Keyence Corporation), and the neurite lengths were measured by using an image analysis software ImageJ (NIH).
as §1, with “containing paclitaxel (abbreviated as PTX in the figure of results) alone” for “containing carboplatin”, “of 0.1” for “of 50”, “μM)” for “μM) alone”, “or paclitaxel” for “or carboplatin”, “10,” for “10, 20,”

With “lecithinized superoxide dismutase [PC-SOD]” the “decrease in density of intraepidermal nerve fiber caused by OXA” value [1] was “a suppressive effect on the decrease in density of intraepidermal nerve fiber caused by OXA was observed”, the “increase in score for cold stimulus (acetone test)” value [2] was “significantly suppressed” and the “necrosis of liver cells caused by OXA” value [3] was “a suppressive effect on necrosis of liver cells caused by OXA was shown”. The “neurite retraction caused by carboplatin” value ([4]; carboplatin 50 μM, PC-SOD 10, 20, 50, 100 μg/mL, FIG. 7-2) was “suppressed by simultaneous addition of PC-SOD dependently on the PC-SOD concentration”, the “neurite retraction caused by cisplatin” value ([4]; cisplatin 33 μM, PC-SOD 10, 50, 100 μg/mL, FIG. 7-1) was “significantly suppressed as compared with addition of cisplatin alone” and the “neurite retraction caused by oxaliplatin” value ([4]; PC-SOD 10, 50, 100 μg/mL, FIG. 7-1) was “markedly suppressed by simultaneous addition of PC-SOD dependently on the PC-SOD concentration”. The “neurite retraction caused by oxaliplatin” value ([4]; test substance 50 μg/mL, FIG. 8) was “suppressed almost completely” and the “neurite retraction caused by paclitaxel” value ([4]; paclitaxel 0.1 μM, PC-SOD 10, 50, 100 μg/mL, FIG. 7-3) was “suppressed by simultaneous addition of PC-SOD dependently on the PC-SOD concentration”.
